Laboratory results published in PubChem BioAssay (NCI).
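Interpolation was linear, between the two tested concentrations surrounding the appropriate level; five concentrations were tested over 48 hours in 96-well plates. GI50 marks 50% less growth. TGI: concentration producing complete growth inhibition.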

What was measured:
Experiment in all cases: inhibition of tumour cell growth, NCI panel, 48 h
SK-MEL-28 melanoma = test system: SK-MEL-28 melanoma
IGROV1 ovarian = test system: IGROV1 ovarian
COLO 205 colon = test system: COLO 205 colon
UACC-62 melanoma = test system: UACC-62 melanoma
SR leukemia = test system: SR leukemia
UO-31 renal = test system: UO-31 renal
K-562 leukemia = test system: K-562 leukemia
OVCAR-8 ovarian = test system: OVCAR-8 ovarian
RPMI-8226 leukemia = test system: RPMI-8226 leukemia
SK-OV-3 ovarian = test system: SK-OV-3 ovarian

SMILES | TGI (SK-MEL-28 melanoma) [µM] | TGI (IGROV1 ovarian) [µM] | TGI (COLO 205 colon) [µM] | TGI (UACC-62 melanoma) [µM] | TGI (SR leukemia) [µM] | TGI (UO-31 renal) [µM] | TGI (K-562 leukemia) [µM] | TGI (OVCAR-8 ovarian) [µM] | TGI (RPMI-8226 leukemia) [µM] | TGI (SK-OV-3 ovarian) [µM] | GI50 (IGROV1 ovarian) [µM] | GI50 (COLO 205 colon) [µM] | GI50 (UACC-62 melanoma) [µM] | GI50 (UO-31 renal) [µM] | GI50 (K-562 leukemia) [µM] | GI50 (OVCAR-8 ovarian) [µM] | GI50 (SK-OV-3 ovarian) [µM] | GI50 (RPMI-8226 leukemia) [µM] | GI50 (SK-MEL-28 melanoma) [µM] | GI50 (SR leukemia) [µM]
CCOC(=O)c1cc2cc([N+](=O)[O-])ccc2oc1=O | > 100 | > 100 | > 100 | > 100 | > 100 | > 100 | > 100 | > 100 | > 100 | – | – | – | – | – | – | – | – | – | – | –
COc1ccccc1OCC(COC(=O)Nc1ccc(C)cc1)OC(=O)Nc1ccc(C)cc1 (stereo not drawn) | 60.8 | 60.1 | 32.4 | 30.6 | 59.6 | 34.3 | 45.5 | 38.4 | 38.8 | 47.8 | – | – | – | – | – | – | – | – | – | –
CN(C)c1ccc(/C=N/Nc2ccc(-c3nc4ccccc4[nH]3)cc2)cc1 | – | > 50 | > 50 | 24.3 | – | 23.8 | 16.3 | 32.4 | > 50 | > 50 | 9.37 | 20.3 | 8.32 | 7.44 | 2.86 | 9.79 | 21.2 | 4.6 | – | –
N#CC(C#N)=C/C=C/c1cccc([N+](=O)[O-])c1 | 3.23 | 9.32 | 3.26 | 2.96 | 15.3 | – | > 100 | 1.36 | 9.6 | 9.2 | 0.71 | 1.26 | 1.3 | – | 1.59 | 0.329 | 2.62 | 1.59 | 1.38 | 0.576
C=C1C(=O)C23C(CC(OC(C)=O)C1[C@@H]2OC(C)=O)C1(C)C(OC(C)=O)CCC(C)(C)C1C[C@@H]3OC(C)=O (stereo partly drawn) | 3.3 | 2.87 | – | 3.72 | – | 3.19 | 3.6 | 1.59 | 4.68 | 3.59 | – | – | – | – | – | – | – | – | – | –
C=C(C)[C@@H]1CC[C@]2(C#N)CC[C@]3(C)[C@H](CC[C@@H]4[C@@]5(C)CCCNC(C)(C)[C@@H]5CC[C@]43C)[C@@H]12 | 3.5 | 3.47 | 3.51 | 3.6 | – | 7.92 | 10.5 | 3.38 | – | 25.4 | 1.82 | 1.96 | 1.96 | 2.41 | 2.09 | 1.84 | 11.1 | – | 1.92 | –
O=C(O)c1oc2ccc([N+](=O)[O-])c3c2c1CCC3 | > 100 | – | > 100 | – | – | > 100 | – | > 100 | – | – | – | – | – | – | – | – | – | – | – | –
C[P+](C)(CC(F)(F)F)c1ccccc1 | – | > 100 | > 100 | > 100 | > 100 | > 100 | > 100 | > 100 | > 100 | > 100 | – | – | – | – | – | – | – | – | – | –
C[Si](C)(C)[C@@]1([Se]c2ccccc2)CC[C@@H]1C(=O)c1ccccc1 | > 100 | > 100 | > 100 | > 100 | – | > 100 | > 100 | > 100 | 53 | > 100 | – | – | – | – | – | – | – | – | – | –
ClCc1ccc(Cn2cnc3ncnc(Cl)c32)cc1 | – | 31.1 | 3.78 | 12 | 2.7 | 66.7 | > 100 | 11 | 2.67 | 23.3 | 7.61 | 1.9 | 2.5 | 4.82 | 3.03 | 3.14 | 11.3 | 1.28 | – | 0.822
COc1ccc2c(c1)[n+]([O-])c(-c1ccc(Cl)c(Cl)c1)c(N)[n+]2[O-] | > 100 | 93.2 | 33.6 | – | > 100 | > 100 | > 100 | > 100 | > 100 | > 100 | – | – | – | – | – | – | – | – | – | –
Cc1nc(Nc2ccc([N+](=O)[O-])cc2)sc1C(=O)/C=C/c1ccc(N(C)C)cc1 | > 100 | > 100 | > 100 | > 100 | – | > 100 | > 100 | > 100 | > 100 | > 100 | – | – | – | – | – | – | – | – | – | –
O=C(O)CNS(=O)(=O)c1ccc(NC(=O)c2cccc([N+](=O)[O-])c2)cc1 | > 100 | > 100 | > 100 | > 100 | – | > 100 | > 100 | > 100 | > 100 | > 100 | – | – | – | – | – | – | – | – | – | –
C/C(=N\NC(=S)Nc1ccc([N+](=O)[O-])cc1S(=O)(=O)O)c1ccccn1 | > 100 | > 100 | > 100 | > 100 | 75.6 | > 100 | > 100 | > 100 | > 100 | – | – | – | – | – | – | – | – | – | – | –
CN(C)/C(=N/C(=O)Nc1ccccc1)SCc1ccccc1 | > 100 | > 100 | > 100 | > 100 | – | > 100 | > 100 | > 100 | > 100 | > 100 | – | – | – | – | – | – | – | – | – | –
COCCn1cc(-c2csc(-c3c[nH]c4ccc(F)cc34)n2)c2cccnc21 | > 100 | > 100 | > 100 | > 100 | > 100 | > 100 | > 100 | > 100 | – | – | 3.49 | 2.69 | 6.78 | 4.41 | 2.12 | 4.1 | – | – | 7.73 | 3.24
N#CCc1nc2c(s1)C(=O)c1ccccc1C2=O | 32.8 | 17.3 | 33.4 | 26.5 | – | 29.3 | 39.6 | 22.6 | 46.6 | > 100 | – | – | – | – | – | – | – | – | – | –
O=C(O)C1C2CC3CC2CC31 (stereo not drawn) | > 100 | > 100 | > 100 | > 100 | – | > 100 | > 100 | > 100 | > 100 | > 100 | – | – | – | – | – | – | – | – | – | –
COc1cc(C(N)=O)c(OC)c(OC)c1OC | > 100 | > 100 | > 100 | > 100 | – | > 100 | > 100 | > 100 | > 100 | > 100 | – | – | – | – | – | – | – | – | – | –
O=C1C=Cc2noc3cccc1c23 | 17.6 | 29.4 | 34 | 13.4 | – | 15.3 | 9.65 | 8.13 | – | 32.1 | – | – | – | – | – | – | – | – | – | –
